In patent US11389465B2, “Phosphorylated hexaacyl disaccharides (PHADs) for treating or preventing infections” (VANDERBILT UNIVERSITY, priority 2017, dated 2022):
“Also recorded” adds a separate entry of the source.

Legend:
[1] = tested on: Gram negative and Gram positive bacterial infections; settings: mice primed with LPS; cited from earlier work
P. aeruginosa = settings: head to head with MPLA, 20 μg/mouse

Compound	resistance to infection of primed mice [1]	efficacy at augmenting host resistance to bacterial infection compared with MPLA (P. aeruginosa)
Lipopolysaccharide [LPS]	improved resistance to Gram negative and Gram positive bacterial infections	–
CCCCCCCCCCCCCC(=O)OC(CCCCCCCCCCC)CC(=O)NC1C(O)OC(COC2OC(CO)C(OP(=O)(O)O)C(OC(=O)CC(CCCCCCCCCCC)OC(=O)CCCCCCCCCCCCC)C2NC(=O)CC(CCCCCCCCCCC)OC(=O)CCCCCCCCCCCCC)C(O)C1O.N (stereo not shown) [3D(6-acyl) PHAD, 3-D (6-acyl) phosphorylated hexaacyl disaccharide]	–	as effective as MPLA
CCCCCCCCCCCCCC(=O)OC(CCCCCCCCCCC)CC(=O)NC1C(OCC2OC(O)C(NC(=O)CC(O)CCCCCCCCCCC)C(O)C2O)OC(CO)C(OP(=O)(O)O)C1OC(=O)CC(CCCCCCCCCCC)OC(=O)CCCCCCCCCCCCC.N (stereo not shown) [3D-PHAD, 3-deacyl phosphorylated hexaacyl disaccharide]	–	as effective as MPLA; also recorded: as efficacious as MPLA
CCCCCCCCCCCCCC(=O)OC(CCCCCCCCCCC)CC(=O)NC1C(OCC2OC(O)C(NC(=O)CC(O)CCCCCCCCCCC)C(OC(=O)CC(O)CCCCCCCCCCC)C2O)OC(CO)C(OP(=O)(O)O)C1OC(=O)CC(CCCCCCCCCCC)OC(=O)CCCCCCCCCCCCC.N (stereo not shown) [PHAD, phosphorylated hexaacyl disaccharide]	–	as effective as MPLA
